The results in this text go back to ChEMBL document CHEMBL1122787, “Acetylenic nucleosides. 3. Synthesis and biological activities of some 5-ethynylpyrimidine nucleosides” (1984).

Molecules are shown by their SMILES. Activity calls are given as the source filed them. No cut-off for these calls is given here.

Test [1] relates to B16. Put plainly: Compound was evaluated for antitumor activity against B16 melanoma cell lines in culture. Type of test: functional, Mus musculus.
Test [2] is described as follows: Compound was evaluated for its concentration for antiviral activity against the replication of herpes simplex virus type 1 in monkey kidney cells. Type of test: functional, Cercopithecidae.
Test [3] concerns L1210. Put plainly: Compound was evaluated for antitumor activity against L-1210 cell lines in culture. Type of test: functional, Mus musculus.
For test [4], the system named is B16. Kind of test: Compound was evaluated for antitumor activity against B16 melanoma cell lines in culture; IN-Inactive at 10E-4 concentration. The note with it: Mus musculus. Type of test: functional, cell-based.
For test [5], the system named is L1210. Kind of test: Compound was evaluated for antitumor activity against L-1210 cell lines in culture; IN-Inactive at 10E-4 concentration. Type of test: functional, cell-based. Particulars: Mus musculus.

With `C#Cc1cn([C@@H]2O[C@H](CO)[C@@H](O)[C@@H]2F)c(=O)nc1N`, the Inhibition in test [1] and in test [3] was approximately 60 µM each time. The ID90 in test [2] is 50 µM.

`C#Cc1cn([C@@H]2O[C@H](CO)[C@@H](O)[C@@H]2N=[N+]=[N-])c(=O)[nH]c1=O`: the Inhibition entry in test [4] and in test [5] was “inactive” each time.
